# Laboratory results taken from PubChem BioAssay (NCI).
#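 Grown in 96-well plates, cells were treated for 48 hours with each compound at five concentrations. Insufficient inhibition: endpoint recorded as highest concentration tested. TGI denotes the concentration required for complete inhibition of growth.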
# Legend:
# Assay in all cases: NCI anticancer screen, dose series, 48 h
# HS 578T breast = test system: HS 578T breast
# BT-549 breast = test system: BT-549 breast
# COLO 205 colon = test system: COLO 205 colon
# OVCAR-4 ovarian = test system: OVCAR-4 ovarian
# UACC-257 melanoma = test system: UACC-257 melanoma
# IGROV1 ovarian = test system: IGROV1 ovarian
# TK-10 renal = test system: TK-10 renal
# A498 renal = test system: A498 renal
# MCF7 breast = test system: MCF7 breast
# SK-OV-3 ovarian = test system: SK-OV-3 ovarian
# OVCAR-3 ovarian = test system: OVCAR-3 ovarian
# ACHN renal = test system: ACHN renal
# SNB-19 CNS = test system: SNB-19 CNS
# M14 melanoma = test system: M14 melanoma
# PC-3 prostate = test system: PC-3 prostate
# SK-MEL-28 melanoma = test system: SK-MEL-28 melanoma
# T-47D breast = test system: T-47D breast
# HCT-116 colon = test system: HCT-116 colon
# 786-0 renal = test system: 786-0 renal
# SK-MEL-2 melanoma = test system: SK-MEL-2 melanoma
# CCRF-CEM leukemia = test system: CCRF-CEM leukemia
# NCI-H522 lung = test system: NCI-H522 lung
# SF-295 CNS = test system: SF-295 CNS
# A549 NSCLC = test system: A549 NSCLC
# EKVX NSCLC = test system: EKVX NSCLC
# CAKI-1 renal = test system: CAKI-1 renal
# MDA-MB-435 = test system: MDA-MB-435
# RXF 393 renal = test system: RXF 393 renal
# DU-145 prostate = test system: DU-145 prostate
# NCI-H460 lung = test system: NCI-H460 lung
# MALME-3M melanoma = test system: MALME-3M melanoma
# UO-31 renal = test system: UO-31 renal
# SF-539 CNS = test system: SF-539 CNS
# HOP-92 NSCLC = test system: HOP-92 NSCLC
# SR leukemia = test system: SR leukemia
# SK-MEL-5 melanoma = test system: SK-MEL-5 melanoma
# OVCAR-8 ovarian = test system: OVCAR-8 ovarian
# OVCAR-5 ovarian = test system: OVCAR-5 ovarian
# MDA-N = test system: MDA-N
# U251 CNS = test system: U251 CNS
# RPMI-8226 leukemia = test system: RPMI-8226 leukemia
# HCT-15 colon = test system: HCT-15 colon
# HL-60(TB) leukemia = test system: HL-60(TB) leukemia
# K-562 leukemia = test system: K-562 leukemia
# HT29 colon = test system: HT29 colon
# SNB-75 CNS = test system: SNB-75 CNS
# MOLT-4 leukemia = test system: MOLT-4 leukemia
# SF-268 CNS = test system: SF-268 CNS
# NCI-H226 lung = test system: NCI-H226 lung
# MDA-MB-231 breast = test system: MDA-MB-231 breast
# NCI/ADR-RES ovarian = test system: NCI/ADR-RES ovarian
# LOX IMVI melanoma = test system: LOX IMVI melanoma
# HOP-62 NSCLC = test system: HOP-62 NSCLC
# KM12 colon = test system: KM12 colon
# UACC-62 melanoma = test system: UACC-62 melanoma
# NCI-H23 lung = test system: NCI-H23 lung
# SN12C renal = test system: SN12C renal
# SW-620 colon = test system: SW-620 colon
smiles,measurement,setting,value
COc1ccc(/C=C/c2nsc(/C=C/c3ccc(OC)cc3)n2)cc1,TGI,HS 578T breast,> 100 µM
same,TGI,BT-549 breast,> 100 µM
same,TGI,COLO 205 colon,> 100 µM
same,TGI,OVCAR-4 ovarian,> 100 µM
same,TGI,UACC-257 melanoma,> 100 µM
same,TGI,IGROV1 ovarian,> 100 µM
same,TGI,TK-10 renal,> 100 µM
same,TGI,A498 renal,> 100 µM
same,TGI,MCF7 breast,> 100 µM
same,TGI,SK-OV-3 ovarian,> 100 µM
same,TGI,OVCAR-3 ovarian,> 100 µM
same,TGI,ACHN renal,> 100 µM
same,TGI,SNB-19 CNS,> 100 µM
same,TGI,M14 melanoma,> 100 µM
same,TGI,PC-3 prostate,> 100 µM
same,TGI,SK-MEL-28 melanoma,> 100 µM
same,TGI,T-47D breast,> 100 µM
same,TGI,HCT-116 colon,> 100 µM
same,TGI,786-0 renal,41.8 µM
same,TGI,SK-MEL-2 melanoma,> 100 µM
same,TGI,CCRF-CEM leukemia,> 100 µM
same,TGI,NCI-H522 lung,> 100 µM
same,TGI,SF-295 CNS,> 100 µM
same,TGI,A549 NSCLC,> 100 µM
same,TGI,EKVX NSCLC,> 100 µM
same,TGI,CAKI-1 renal,> 100 µM
same,TGI,MDA-MB-435,> 100 µM
same,TGI,RXF 393 renal,> 100 µM
same,TGI,DU-145 prostate,> 100 µM
same,TGI,NCI-H460 lung,88.7 µM
same,TGI,MALME-3M melanoma,> 100 µM
same,TGI,UO-31 renal,> 100 µM
same,TGI,SF-539 CNS,> 100 µM
same,TGI,HOP-92 NSCLC,> 100 µM
same,TGI,SR leukemia,> 100 µM
same,TGI,SK-MEL-5 melanoma,> 100 µM
same,TGI,OVCAR-8 ovarian,> 100 µM
same,TGI,OVCAR-5 ovarian,> 100 µM
same,TGI,MDA-N,> 100 µM
same,TGI,U251 CNS,> 100 µM
same,TGI,RPMI-8226 leukemia,> 100 µM
same,TGI,HCT-15 colon,> 100 µM
same,TGI,HL-60(TB) leukemia,> 100 µM
same,TGI,K-562 leukemia,> 100 µM
same,TGI,HT29 colon,> 100 µM
same,TGI,SNB-75 CNS,> 100 µM
same,TGI,MOLT-4 leukemia,> 100 µM
same,TGI,SF-268 CNS,> 100 µM
same,TGI,NCI-H226 lung,> 100 µM
same,TGI,MDA-MB-231 breast,> 100 µM
same,TGI,NCI/ADR-RES ovarian,> 100 µM
same,TGI,LOX IMVI melanoma,> 100 µM
same,TGI,HOP-62 NSCLC,> 100 µM
same,TGI,KM12 colon,> 100 µM
O=C1CSC(c2ccccc2O)N1c1ccc(-c2ccc(-n3c(-c4ccccc4)nc4ccccc4c3=O)cc2)cc1 (centres undefined),TGI,HS 578T breast,> 100 µM
same,TGI,UACC-62 melanoma,> 100 µM
same,TGI,BT-549 breast,55.7 µM
same,TGI,COLO 205 colon,44.9 µM
same,TGI,OVCAR-4 ovarian,> 100 µM
same,TGI,UACC-257 melanoma,> 100 µM
same,TGI,IGROV1 ovarian,> 100 µM
same,TGI,TK-10 renal,71 µM
same,TGI,A498 renal,> 100 µM
same,TGI,MCF7 breast,> 100 µM
same,TGI,SK-OV-3 ovarian,> 100 µM
same,TGI,OVCAR-3 ovarian,> 100 µM
same,TGI,SNB-19 CNS,> 100 µM
same,TGI,M14 melanoma,> 100 µM
same,TGI,PC-3 prostate,94.9 µM
same,TGI,SK-MEL-28 melanoma,> 100 µM
same,TGI,T-47D breast,> 100 µM
same,TGI,HCT-116 colon,> 100 µM
same,TGI,786-0 renal,60.9 µM
same,TGI,CCRF-CEM leukemia,> 100 µM
same,TGI,NCI-H522 lung,44.7 µM
same,TGI,NCI-H23 lung,> 100 µM
same,TGI,SF-295 CNS,54.2 µM
same,TGI,A549 NSCLC,77.8 µM
same,TGI,EKVX NSCLC,> 100 µM
same,TGI,CAKI-1 renal,69.1 µM
same,TGI,MDA-MB-435,> 100 µM
same,TGI,RXF 393 renal,91.9 µM
same,TGI,DU-145 prostate,> 100 µM
same,TGI,NCI-H460 lung,> 100 µM
same,TGI,MALME-3M melanoma,49.3 µM
same,TGI,UO-31 renal,> 100 µM
same,TGI,SF-539 CNS,> 100 µM
same,TGI,HOP-92 NSCLC,> 100 µM
same,TGI,SR leukemia,> 100 µM
same,TGI,OVCAR-8 ovarian,> 100 µM
same,TGI,SN12C renal,> 100 µM
same,TGI,OVCAR-5 ovarian,> 100 µM
same,TGI,MDA-N,> 100 µM
same,TGI,U251 CNS,> 100 µM
same,TGI,RPMI-8226 leukemia,> 100 µM
same,TGI,HCT-15 colon,> 100 µM
same,TGI,HL-60(TB) leukemia,> 100 µM
same,TGI,K-562 leukemia,> 100 µM
same,TGI,HT29 colon,28.7 µM
same,TGI,SNB-75 CNS,> 100 µM
same,TGI,MOLT-4 leukemia,> 100 µM
same,TGI,SF-268 CNS,> 100 µM
same,TGI,NCI-H226 lung,> 100 µM
same,TGI,MDA-MB-231 breast,> 100 µM
same,TGI,NCI/ADR-RES ovarian,> 100 µM
same,TGI,LOX IMVI melanoma,77.4 µM
same,TGI,HOP-62 NSCLC,> 100 µM
same,TGI,KM12 colon,52.3 µM
same,TGI,SW-620 colon,> 100 µM
